Data published in PubChem BioAssay (NCI).
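Five compound concentrations were applied to cells in 96-well plates for 48 hours; endpoints were derived by simple linear interpolation of the resulting dose-response curve. TGI is the concentration that stops growth completely.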

What was measured:
Assay in all cases: NCI anticancer screen, dose series, 48 h
[1] = system: MALME-3M melanoma
[2] = system: NCI-H460 lung
[3] = system: MDA-N
[4] = system: SK-MEL-28 melanoma
[5] = system: COLO 205 colon
[6] = system: U251 CNS
[7] = system: SF-295 CNS
[8] = system: EKVX NSCLC
[9] = system: MDA-MB-231 breast
[10] = system: OVCAR-3 ovarian
[11] = system: SW-620 colon
[12] = system: TK-10 renal
[13] = system: CCRF-CEM leukemia
[14] = system: NCI/ADR-RES ovarian
[15] = system: OVCAR-8 ovarian
[16] = system: ACHN renal
[17] = system: SNB-19 CNS
[18] = system: NCI-H226 lung
[19] = system: NCI-H23 lung
[20] = system: HCT-15 colon
[21] = system: SK-MEL-5 melanoma
[22] = system: K-562 leukemia
[23] = system: NCI-H522 lung
[24] = system: MCF7 breast
[25] = system: MOLT-4 leukemia
[26] = system: DU-145 prostate
[27] = system: OVCAR-5 ovarian
[28] = system: PC-3 prostate
[29] = system: HCC-2998 colon
[30] = system: SR leukemia
[31] = system: SF-539 CNS
[32] = system: SNB-75 CNS
[33] = system: HOP-62 NSCLC
[34] = system: BT-549 breast
[35] = system: HL-60(TB) leukemia
[36] = system: HS 578T breast
[37] = system: T-47D breast
[38] = system: HT29 colon
[39] = system: SK-MEL-2 melanoma
[40] = system: SK-OV-3 ovarian
[41] = system: UO-31 renal
[42] = system: LOX IMVI melanoma
[43] = system: 786-0 renal
[44] = system: UACC-62 melanoma
[45] = system: A498 renal
[46] = system: SF-268 CNS
[47] = system: RXF 393 renal
[48] = system: OVCAR-4 ovarian
[49] = system: IGROV1 ovarian
[50] = system: A549 NSCLC
[51] = system: RPMI-8226 leukemia
[52] = system: SN12C renal
[53] = system: M14 melanoma
[54] = system: KM12 colon
[55] = system: CAKI-1 renal
[56] = system: HCT-116 colon
[57] = system: UACC-257 melanoma
[58] = system: HOP-92 NSCLC

For CNc1ccc(Cl)cc1S(=O)(=O)c1ccccc1[N+](=O)[O-], the TGI [1] was > 100 µM, the TGI [2] was > 100 µM and the TGI [3] was > 100 µM. The TGI [4] was > 100 µM, the TGI [5] was > 100 µM and the TGI [6] was > 100 µM. For the same molecule, the TGI [7] was > 100 µM, the TGI [8] was > 100 µM and the TGI [9] was > 100 µM. For the same molecule, the TGI [10] was > 100 µM, the TGI [11] was > 100 µM and the TGI [12] was > 100 µM. For the same molecule, the TGI [13] was > 100 µM, the TGI [14] was > 100 µM and the TGI [15] was > 100 µM. For the same molecule, the TGI [16] was > 100 µM, the TGI [17] was > 100 µM and the TGI [18] was > 100 µM. For the same molecule, the TGI [19] was > 100 µM, the TGI [20] was > 100 µM and the TGI [21] was > 100 µM. The TGI [22] was > 100 µM, the TGI [23] was > 100 µM and the TGI [24] was > 100 µM. For the same molecule, the TGI [25] was > 100 µM, the TGI [26] was > 100 µM and the TGI [27] was > 100 µM. For the same molecule, the TGI [28] was > 100 µM, the TGI [29] was > 100 µM and the TGI [30] was > 100 µM. For the same molecule, the TGI [31] was > 100 µM, the TGI [32] was > 100 µM and the TGI [33] was > 100 µM. The TGI [34] was > 100 µM, the TGI [35] was > 100 µM and the TGI [36] was > 100 µM. The TGI [37] was > 100 µM, the TGI [38] was > 100 µM and the TGI [39] was > 100 µM. For the same molecule, the TGI [40] was > 100 µM, the TGI [41] was > 100 µM and the TGI [42] was > 100 µM. For the same molecule, the TGI [43] was > 100 µM, the TGI [44] was > 100 µM and the TGI [45] was > 100 µM. The TGI [46] was > 100 µM, the TGI [47] was > 100 µM and the TGI [48] was > 100 µM. For the same molecule, the TGI [49] was > 100 µM, the TGI [50] was > 100 µM and the TGI [51] was > 100 µM. The TGI [52] was > 100 µM and the TGI [53] was > 100 µM.
For O=[N+]([O-])/C=C/c1cn(CCCCCn2cc(/C=C/[N+](=O)[O-])c3ccccc32)c2ccccc12, the TGI [1] was 5.95 µM, the TGI [2] was 17.4 µM and the TGI [3] was 6.67 µM. For the same molecule, the TGI [4] was 12.2 µM, the TGI [5] was > 46.1 µM and the TGI [54] was 3.94 µM. For the same molecule, the TGI [6] was 3.89 µM, the TGI [7] was > 43.9 µM and the TGI [8] was > 37.4 µM. For the same molecule, the TGI [9] was 4.28 µM, the TGI [10] was 4.66 µM and the TGI [11] was 2.57 µM. The TGI [12] was 5.37 µM, the TGI [14] was 35.4 µM and the TGI [15] was 16.5 µM. For the same molecule, the TGI [16] was 13.9 µM, the TGI [17] was 24.2 µM and the TGI [18] was 4.36 µM. For the same molecule, the TGI [19] was 16 µM, the TGI [20] was 8.67 µM and the TGI [21] was 3.46 µM. For the same molecule, the TGI [22] was 3.7 µM, the TGI [23] was 50.4 µM and the TGI [24] was 1.62 µM. For the same molecule, the TGI [25] was > 20.4 µM, the TGI [26] was 7.25 µM and the TGI [27] was 32.3 µM. For the same molecule, the TGI [28] was 15 µM, the TGI [29] was 2.8 µM and the TGI [30] was > 100 µM. For the same molecule, the TGI [31] was 5.28 µM, the TGI [55] was > 53.6 µM and the TGI [33] was 10.6 µM. It also gave a TGI [56] of 0.824 µM, a TGI [34] of 6.72 µM and a TGI [35] of 2.5 µM. The TGI [36] was 7.99 µM, the TGI [37] was > 100 µM and the TGI [38] was 7.82 µM. The TGI [39] was 38.1 µM, the TGI [40] was > 93.5 µM and the TGI [41] was 9.78 µM. The TGI [42] was 1.51 µM, the TGI [43] was 1.35 µM and the TGI [44] was 31.5 µM. It also gave a TGI [57] of 13.8 µM, a TGI [45] of 3.86 µM and a TGI [46] of 15.6 µM. For the same molecule, the TGI [47] was 1.35 µM, the TGI [48] was 7.1 µM and the TGI [49] was 5.81 µM. The TGI [58] was 67 µM, the TGI [50] was 11.7 µM and the TGI [51] was > 100 µM. For the same molecule, the TGI [52] was > 21.5 µM and the TGI [53] was 15.1 µM.
